Earlier results as cited in patent US10231947B2, “Isochroman compounds and methods of use thereof” (ARIZONA BOARD OF REGENTS ON BEHALF OF ARIZONA STATE …, priority 2017, dated 2019).

Key:
hRXR [1] = conditions: Caco-2 cells
hRXR [2] = conditions: Caco-2 cells; remark: listed apart in the source
hRXRβ = hRXRβ (Homo sapiens, UniProt P28702); conditions: read-out: EC50 for the hRXRβ isoform
hRXRβ, sequence (P28702 whole entry, canonical isoform): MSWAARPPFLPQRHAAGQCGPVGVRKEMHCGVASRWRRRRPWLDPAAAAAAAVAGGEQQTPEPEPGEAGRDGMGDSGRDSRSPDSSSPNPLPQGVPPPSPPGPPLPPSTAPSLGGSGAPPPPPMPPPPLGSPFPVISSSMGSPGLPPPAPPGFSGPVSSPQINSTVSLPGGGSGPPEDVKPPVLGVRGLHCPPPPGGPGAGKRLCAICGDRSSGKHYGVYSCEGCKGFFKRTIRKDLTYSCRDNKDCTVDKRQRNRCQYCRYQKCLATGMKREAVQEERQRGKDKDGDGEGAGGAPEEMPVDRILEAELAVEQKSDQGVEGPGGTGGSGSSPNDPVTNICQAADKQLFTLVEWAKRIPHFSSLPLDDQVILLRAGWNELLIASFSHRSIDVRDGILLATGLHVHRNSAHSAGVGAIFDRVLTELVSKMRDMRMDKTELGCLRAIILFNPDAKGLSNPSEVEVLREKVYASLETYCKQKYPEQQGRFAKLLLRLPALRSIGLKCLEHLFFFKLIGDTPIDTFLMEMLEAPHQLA

Row | Structure (SMILES) | EC50 (hRXR [1]) [nM] | Kd (hRXR [2]) [nM] | EC50 (hRXRβ) [nM]
1 | C=C(c1ccc(C(=O)O)c(F)c1)c1cc2c(cc1C)C(C)(C)CCC2(C)C [compound 3] | 43 | 12 | –
2 | Cc1cc2c(cc1-c1cc(/C=C/C(=O)O)ccc1O)C(C)(C)CCC2(C)C [CD3254] | – | – | ~10
